Test results taken from patent US20260138961A1, “MODULATORS OF MITOCHONDRIAL DNA REPLICATION” (Pretzel Therapeutics, Inc., priority 2022, published 2026).

biological target: T1, POLγ W748S + E1143G (Homo sapiens, UniProt P54098, E1143G/W748S); assay: DNA polymerization assay, W748S + E1143G mutant; format: biochemical; details: stimulation of polymerase activity, primed M13mp18 ssDNA, 37° C. 2 hours
T1 sequence (P54098 1-1239 W748S/E1143G): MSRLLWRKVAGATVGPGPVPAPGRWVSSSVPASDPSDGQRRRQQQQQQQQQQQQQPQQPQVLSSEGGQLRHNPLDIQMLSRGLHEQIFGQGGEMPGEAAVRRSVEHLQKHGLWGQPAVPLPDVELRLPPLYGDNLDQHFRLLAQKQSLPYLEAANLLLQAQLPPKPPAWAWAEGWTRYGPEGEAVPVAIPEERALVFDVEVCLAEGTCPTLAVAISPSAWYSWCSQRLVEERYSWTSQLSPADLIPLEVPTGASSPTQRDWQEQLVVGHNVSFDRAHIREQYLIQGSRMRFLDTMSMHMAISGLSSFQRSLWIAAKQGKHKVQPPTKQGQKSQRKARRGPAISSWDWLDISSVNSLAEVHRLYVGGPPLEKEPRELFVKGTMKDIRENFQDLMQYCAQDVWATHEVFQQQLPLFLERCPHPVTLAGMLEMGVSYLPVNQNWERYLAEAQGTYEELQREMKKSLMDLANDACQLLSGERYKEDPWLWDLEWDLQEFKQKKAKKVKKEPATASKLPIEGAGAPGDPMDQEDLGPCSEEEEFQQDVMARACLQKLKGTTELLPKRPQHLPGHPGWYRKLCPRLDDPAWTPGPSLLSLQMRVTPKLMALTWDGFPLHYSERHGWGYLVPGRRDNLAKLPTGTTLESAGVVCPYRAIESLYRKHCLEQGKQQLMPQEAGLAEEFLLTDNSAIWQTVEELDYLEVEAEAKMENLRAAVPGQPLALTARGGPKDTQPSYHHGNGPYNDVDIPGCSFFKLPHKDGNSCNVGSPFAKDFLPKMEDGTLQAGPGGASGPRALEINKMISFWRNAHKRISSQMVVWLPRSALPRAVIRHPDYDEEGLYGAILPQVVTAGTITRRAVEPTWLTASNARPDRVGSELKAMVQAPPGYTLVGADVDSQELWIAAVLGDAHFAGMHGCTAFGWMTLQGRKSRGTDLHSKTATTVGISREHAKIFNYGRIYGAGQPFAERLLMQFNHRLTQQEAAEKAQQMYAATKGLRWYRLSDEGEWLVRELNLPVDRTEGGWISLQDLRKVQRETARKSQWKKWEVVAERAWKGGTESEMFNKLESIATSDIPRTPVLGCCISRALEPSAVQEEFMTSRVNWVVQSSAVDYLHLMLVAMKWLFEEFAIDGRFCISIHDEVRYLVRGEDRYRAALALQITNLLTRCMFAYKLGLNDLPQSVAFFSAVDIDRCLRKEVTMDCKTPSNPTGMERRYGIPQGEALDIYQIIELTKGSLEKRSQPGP
T1 sequence (Q9UHN1 1-485 partner): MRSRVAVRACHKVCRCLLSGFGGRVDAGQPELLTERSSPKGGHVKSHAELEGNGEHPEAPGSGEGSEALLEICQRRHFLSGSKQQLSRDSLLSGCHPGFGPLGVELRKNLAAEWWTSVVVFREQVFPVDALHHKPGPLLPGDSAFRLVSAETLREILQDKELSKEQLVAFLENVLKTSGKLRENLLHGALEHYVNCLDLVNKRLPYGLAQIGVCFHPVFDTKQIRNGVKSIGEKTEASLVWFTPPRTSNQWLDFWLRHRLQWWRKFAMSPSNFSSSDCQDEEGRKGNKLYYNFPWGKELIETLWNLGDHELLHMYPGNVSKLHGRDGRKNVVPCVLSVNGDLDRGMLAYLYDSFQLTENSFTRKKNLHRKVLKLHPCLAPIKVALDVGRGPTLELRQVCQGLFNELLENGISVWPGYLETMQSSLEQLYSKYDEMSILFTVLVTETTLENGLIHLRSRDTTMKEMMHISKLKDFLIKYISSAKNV
Description: DNA Polymerization Assay to Monitor Effects on Human Wildtype POLγ and Four Disease-Causing Mutant Variants of Human POLγ.
The ability of small molecules to stimulate the polymerase activity of POLγ was analyzed in a quantitative fluorescence SYBR Green I assay with fluorescence intensity (FI) readout.
In the presence of dNTPs, wild type human POLγ and mutant derivatives thereof were incubated with single-stranded, circular M13mp18 ssDNA hybridized to a short DNA oligonucleotide that functions as a primer for initiation of DNA synthesis. POLγ and mutant derivatives thereof will extend the primer and use the M13mp18 molecule as a template to synthesize long stretches of double-stranded DNA. SYBR Green I, which is a double-stranded DNA-binding dye, was used to quantify formation of double-stranded DNA in the reaction. When bound to double-stranded DNA, SYBR Green I fluorescence increases by up to 100-fold.
The assay was performed in the 384-well plate format. Upon addition of compounds, changes in double-stranded DNA synthesis activity can be monitored by following effects on fluorescent intensity.
The reactions also contained the accessory POLγB subunit, and the human mitochondrial single-stranded DNA binding protein (mtSSB).
The DNA template mixture used in the assay contained 0.5 nM primed M13 mp18 ssDNA, 400 nM mtSSB, 0.1 mM Tris-HCl (pH 8.0), 0.1 mM dNTP, 10 mM MgCl2, 0.1 mg/mL BSA, 1 mM TCEP solution, and 0.02% Triton X-100. The DNA template mixture for the wild type protein contained either 100 μM dNTP, 1 μM dNTP, or 0.1 μM dNTP, designated in Table 2 as 100 μM, 1 μM, and 0.1 μM, respectfully.
Microplates with compounds (0.1 μL in each well) to be tested in the assay were prepared from 10 mM compound stocks in 100% DMSO, and equal amounts of DMSO without any compound were added to positive and negative control wells.
The protein mixture was dispensed (5 μL into each well) into compound plates and incubated at 37° C. for 15 minutes. After incubation, 5 μL of the DNA template mixture was dispensed into each well. The plates were then incubated at 37° C. for 2 hours.
During incubation, a combined stop buffer and detection reagent solution was prepared. The buffer contained 25 mM EDTA (pH 8.0), 0.02% Triton X-100, and SYBR Green I [Invitrogen] diluted 10,000× (for fluorescent readout). EDTA will stop the enzymatic reaction by chelating magnesium ions.

AC50 | Compound
> 100 µM | Cc1cc(S(=O)(=O)Nc2csc(C(=O)N(C)CC(N)=O)n2)c(C)cc1Cl [Example 172, N-(2-amino-2-oxoethyl)-4-((4-chloro-2,5-dimethylphenyl)sulfonamido)-N-methylthiazole-2-carboxamide]
> 100 µM | Cc1cc(S(=O)(=O)Nc2cc(F)cc(-c3nccs3)c2)c(C)cc1Cl [Example 62, 4-chloro-N-(3-fluoro-5-(thiazol-2-yl)phenyl)-2,5-dimethylbenzenesulfonamide]
> 10 µM | Cc1cc(S(=O)(=O)Nc2csc(-c3ccn(C)n3)n2)c(C)cc1Cl [Example 181, 4-chloro-2,5-dimethyl-N-(2-(1-methyl-1H-pyrazol-3-yl)thiazol-4-yl)benzenesulfonamide]
0.4 µM | Cc1cc(S(=O)(=O)Nc2csc(-c3ccccn3)n2)c(C)cc1Cl [Example 173, 4-chloro-2,5-dimethyl-N-(2-(pyridin-2-yl)thiazol-4-yl)benzenesulfonamide]
